Experimental data: patent US11078216B2, “Bisaryl amides as NRF2 activators” (GLAXOSMITHKLINE INTELLECTUAL PROPERTY DEVELOPMENT LIMITED, priority 2016, dated 2021)
Counter-ions that a name gives are not always drawn.

Each compound was assayed on NRF2 (NQO1 activity as marker for NRF2 activation), BEAS-2B cells (assay: BEAS-2B NQO1 MTT Assay). Conditions: EC50 of NQO1 specific activity induction, 48 hours incubation, read-out: EC50.
Assay type: cell-based
How it was run: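 As a marker of NRF2 activation, NQO1 specific activity was read from the rate of absorbance change at 570 nm in MTT cocktail over 30 minutes. Lysates came from BEAS-2B cells treated for 48 hours at 37° C, and EC50 was derived by 3-parameter fitting.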

Compound | EC50
CCCn1cc(CO[C@H](c2ccc(C)c(CN3C[C@@H](C)Cc4ccccc4S3(=O)=O)c2)C(C)(C)C(=O)Nc2cccnc2)nn1 [Example 51, (R)-2,2-Dimethyl-3-(4-methyl-3-(((S)-4-methyl-1,1-dioxido-4,5-dihydrobenzo[f][1,2]thiazepin-2(3H)-yl(methyl)phenyl)-3-((1-propyl-1H-1,2,3-triazol-4-yl)methoxy)-N-(pyridin-3-yl)propanamide, Formic acid salt] | 100 to 1000 nM
CCCn1cc(CO[C@H](c2ccc(C)c(CN3C[C@@H](C)Cc4ccncc4S3(=O)=O)c2)C(C)(C)C(=O)Nc2cccnc2)nn1 [Example 54] | 10 to 100 nM
COc1cc(C(CC(=O)Nc2cccnc2)c2ccc(C)c(CN3C[C@@H](C)Cc4ccc(C(F)(F)F)cc4S3(=O)=O)c2)cc2nnn(C)c12 (stereo partly shown) [Example 61] | 10 to 100 nM

Same assay, conditions: Homo sapiens, EC50 of NQO1 specific activity induction, 48 hours incubation, read-out: EC50

Compound | EC50
CCn1cc(CO[C@H](c2ccc(C)c(CN3C[C@@H](C)Cc4ccccc4S3(=O)=O)c2)C(C)(C)C(=O)Nc2cccnc2)nn1 [Example 49, (R)-3-((1-Ethyl-1H-1,2,3-triazol-4-yl)methoxy)-2,2-dimethyl-3-(4-methyl-3-(((S)-4-methyl-1,1-dioxido-4,5-dihydrobenzo[f][1,2]thiazepin-2(3H)-yl)methyl)phenyl)-N-(pyridin-3-yl)propanamide, Formic acid salt] | 100 to 1000 nM
CCCn1cc(CO[C@H](c2ccc(C)c(CN3C[C@@H](C)Cc4ncccc4S3(=O)=O)c2)C(C)(C)C(=O)Nc2cccnc2)nn1 [Example 50, (R)-2,2-Dimethyl-3-(4-methyl-3-(((S)-4-methyl-1,1-dioxido-4,5-dihydropyrido[2,3-f][1,2]thiazepin-2(3H)-yl)methyl)phenyl)-3-((1-propyl-1H-1,2,3-triazol-4-yl)methoxy)-N-(pyridin-3-yl)propanamide, Formic acid salt] | 100 to 1000 nM
CCCn1cc(CO[C@H](c2ccc(C)c(CN3C[C@@H](C)Cc4ccc(C(F)(F)F)cc4S3(=O)=O)c2)C(C)(C)C(=O)Nc2cccnc2)nn1 [Example 52, (R)-2,2-Dimethyl-3-(4-methyl-3-(((S)-4-methyl-1,1-dioxido-8-(trifluoromethyl)-4,5-dihydrobenzo[f][1,2]thiazepin-2(3H)-yl)methyl)phenyl)-3-((1-propyl-1H-1,2,3-triazol-4-yl)methoxy)-N-(pyridin-3-yl)propanamide] | 1 to 10 nM
CCCn1cc(CO[C@H](c2ccc(C)c(CN3CC(C)(C)Oc4ccccc4S3(=O)=O)c2)C(C)(C)C(=O)Nc2cccnc2)nn1 [Example 53, (R)-3-(3-((4,4-Dimethyl-1,1-dioxido-3,4-dihydro-2H-benzo[b][1,4,5]oxathiazepin-2-yl)methyl)-4-methylphenyl)-2,2-dimethyl-3-((1-propyl-1H-1,2,3-triazol-4-yl)methoxy)-N-(pyridin-3-yl)propanamide] | 100 to 1000 nM
CCCn1cc(CO[C@H](c2ccc(C)c(CN3C[C@@H](CC)Oc4ccccc4S3(=O)=O)c2)C(C)(C)C(=O)Nc2cccnc2)nn1 [Example 55, (R)-3-(3-(((R)-4-Ethyl-1,1-dioxido-3,4-dihydro-2H-benzo[b][1,4,5]oxathiazepin-2-yl)methyl)-4-methylphenyl)-2,2-dimethyl-3-((1-propyl-1H-1,2,3-triazol-4-yl)methoxy)-N-(pyridin-3-yl)propanamide] | 100 to 1000 nM
CCCn1cc(CO[C@H](c2ccc(C)c(CN3C[C@@H](C)Cc4ccc(F)cc4S3(=O)=O)c2)C(C)(C)C(=O)Nc2cccnc2)nn1 [Example 56, (R)-3-(3-(((S)-8-Fluoro-4-methyl-1,1-dioxido-4,5-dihydrobenzo[f][1,2]thiazepin-2(3H)-yl)methyl)-4-methylphenyl)-2,2-dimethyl-3-((1-propyl-1H-1,2,3-triazol-4-yl)methoxy)-N-(pyridin-3-yl)propanamide] | 100 to 1000 nM
CC[C@H]1Cc2ccccc2S(=O)(=O)N(Cc2cc([C@H](OCc3cn(CC)nn3)C(C)(C)C(=O)Nc3cccnc3)ccc2C)C1 [Example 57, (S)-3-(3-(((S)-4-Ethyl-1,1-dioxido-4,5-dihydrobenzo[f][1,2]thiazepin-2(3H)-yl)methyl)-4-methylphenyl)-3-((1-ethyl-1H-1,2,3-triazol-4-yl)methoxy)-2,2-dimethyl-N-(pyridin-3-yl)propanamide] | 10 to 100 nM
CCn1cc(CO[C@@H](c2ccc(C)c(CN3C[C@@H](C)Cc4ncccc4S3(=O)=O)c2)C(C)(C)C(=O)Nc2cccnc2)nn1 [Example 58, (S)-3-((1-Ethyl-1H-1,2,3-triazol-4-yl)methoxy)-2,2-dimethyl-3-(4-methyl-3-(((S)-4-methyl-1,1-dioxido-4,5-dihydropyrido[2,3-f][1,2]thiazepin-2(3H)-yl)methyl)phenyl)-N-(pyridin-3-yl)propanamide] | 100 to 1000 nM
CCn1nnc2c(C)c([C@H](c3ccc(C)c(CN4C[C@H](C)Cc5ccccc5S4(=O)=O)c3)C(C)(C)C(=O)Nc3cccnc3)cc(OC)c21 [Example 59, (S)-3-(1-Ethyl-7-methoxy-4-methyl-1H-benzo[d][1,2,3]triazol-5-yl)-2,2-dimethyl-3-(4-methyl-3-(((R)-4-methyl-1,1-dioxido-4,5-dihydrobenzo[f][1,2]thiazepin-2(3H)-yl)methyl)phenyl)-N-(pyridin-3-yl)propanamide] | 100 to 1000 nM
CC[C@@H]1CN(Cc2cc([C@H](c3cc(OC)c4c(nnn4CC)c3C)C(C)(C)C(=O)Nc3cccnc3)ccc2C)S(=O)(=O)c2ccccc2O1 [Example 60, (R)-3-(3-(((R)-4-Ethyl-1,1-dioxido-3,4-dihydro-2H-benzo[b][1,4,5]oxathiazepin-2-yl)methyl)-4-methylphenyl)-3-(1-ethyl-7-methoxy-4-methyl-1H-benzo[d][1,2,3]triazol-5-yl)-2,2-dimethyl-N-(pyridin-3-yl)propanamide] | 100 to 1000 nM
COc1cc([C@@H](CC(=O)Nc2cccnc2)c2ccc(C)c(CN3C[C@@H](C)Oc4ccccc4S3(=O)=O)c2)cc2nnn(C)c12 [Example 62, (S)-3-(7-Methoxy-1-methyl-1H-benzo[d][1,2,3]triazol-5-yl)-3-(4-methyl-3-(((R)-4-methyl-1,1-dioxido-3,4-dihydro-2H-benzo[b][1,4,5]oxathiazepin-2-yl)methyl)phenyl)-N-(pyridin-3-yl)propanamide] | 10 to 100 nM
CCn1nnc2c(C)c([C@H](c3ccc(C)c(CN4C[C@@H](C)Cc5ccc(C(F)(F)F)cc5S4(=O)=O)c3)C(C)(C)C(=O)Nc3cccnc3)cc(OC)c21 [Example 63, (S)-3-(1-Ethyl-7-methoxy-4-methyl-1H-benzo[d][1,2,3]triazol-5-yl)-2,2-dimethyl-3-(4-methyl-3-(((S)-4-methyl-1,1-dioxido-8-(trifluoromethyl)-4,5-dihydrobenzo[f][1,2]thiazepin-2(3H)-yl)methyl)phenyl)-N-(pyridin-3-yl)propanamide] | 1 to 10 nM
CC[C@@H]1CN(Cc2cc([C@@H](c3cc(OC)c4c(nnn4CC)c3C)C(C)(C)C(=O)Nc3cccnc3)ccc2C)S(=O)(=O)c2ccccc2O1 [Example 64, (S)-3-(3-(((R)-4-Ethyl-1,1-dioxido-3,4-dihydro-2H-benzo[b][1,4,5]oxathiazepin-2-yl)methyl)-4-methylphenyl)-3-(1-ethyl-7-methoxy-4-methyl-1H-benzo[d][1,2,3]triazol-5-yl)-2,2-dimethyl-N-(pyridin-3-yl)propanamide] | 1 to 10 nM
CC[C@@H]1CN(Cc2cc([C@H](CC(=O)Nc3cccnc3)c3cc(OC)c4c(nnn4CC)c3C)ccc2C)S(=O)(=O)c2cccnc2O1 [Example 65, (S)-3-(3-(((R)-4-Ethyl-1,1-dioxido-3,4-dihydro-2H-pyrido[2,3-b][1,4,5]oxathiazepin-2-yl)methyl)-4-methylphenyl)-3-(1-ethyl-7-methoxy-4-methyl-1H-benzo[d][1,2,3]triazol-5-yl)-N-(pyridin-3-yl)propanamide] | 10 to 100 nM
CCn1nnc2c(C)c([C@H](c3ccc(C)c(CN4C[C@@H](C)Cc5cc(C(F)(F)F)ccc5S4(=O)=O)c3)C(C)(C)C(=O)Nc3cccnc3)cc(OC)c21 [Example 66, (S)-3-(1-Ethyl-7-methoxy-4-methyl-1H-benzo[d][1,2,3]triazol-5-yl)-2,2-dimethyl-3-(4-methyl-3-(((S)-4-methyl-1,1-dioxido-7-(trifluoromethyl)-4,5-dihydrobenzo[f][1,2]thiazepin-2(3H)-yl)methyl)phenyl)-N-(pyridin-3-yl)propanamide] | 10 to 100 nM
CC[C@@H]1CN(Cc2cc([C@H](CC(=O)Nc3nn[nH]n3)c3ccc4c(nnn4CC)c3C)ccc2C)S(=O)(=O)c2cccnc2O1 [Example 67, (S)-3-(3-(((R)-4-Ethyl-1,1-dioxido-3,4-dihydro-2H-pyrido[2,3-b][1,4,5]oxathiazepin-2-yl)methyl)-4-methylphenyl)-3-(1-ethyl-4-methyl-1H-benzo[d][1,2,3]triazol-5-yl)-N-(2H-tetrazol-5-yl)propanamide] | 100 to 1000 nM
CC[C@@H]1CN(Cc2cc([C@@H](c3ccc4c(nnn4CC)c3C)C(C)(C)C(N)=O)ccc2C)S(=O)(=O)c2cccnc2O1 [Example 68, (S)-3-(3-(((R)-4-Ethyl-1,1-dioxido-3,4-dihydro-2H-pyrido[2,3-b][1,4,5]oxathiazepin-2-yl)methyl)-4-methylphenyl)-3-(1-ethyl-4-methyl-1H-benzo[d][1,2,3]triazol-5-yl)-2,2-dimethylpropanamide] | 1 to 10 nM
Cc1ccc(C(CC(=O)Nc2cccnc2)c2ccc(C#N)cc2C)cc1CN1CC(C)Cc2ccc(C(F)(F)F)cc2S1(=O)=O (stereo not shown) [Example 70, 3-(4-Cyano-2-methylphenyl)-3-(4-methyl-3-((4-methyl-1,1-dioxido-8-(trifluoromethyl)-4,5-dihydrobenzo[f][1,2]thiazepin-2(3H)-yl)methyl)phenyl)-N-(pyridin-3-yl)propanamide] | 100 to 1000 nM
CC[C@H]1Cc2ccccc2S(=O)(=O)N(Cc2cc([C@@H](c3ccc4c(nnn4CC)c3C)C(C)(C)C(=O)Nc3ncns3)ccc2C)C1 [Example 71, (S)-3-(3-(((S)-4-Ethyl-1,1-dioxido-4,5-dihydrobenzo[f][1,2]thiazepin-2(3H)-yl)methyl)-4-methylphenyl)-3-(1-ethyl-4-methyl-1H-benzo[d][1,2,3]triazol-5-yl)-2,2-dimethyl-N-(1,2,4-thiadiazol-5-yl)propanamide] | 1 to 10 nM
